Experimental data as given in ChEMBL document CHEMBL5696442, “Discovery of type II inhibitors of TGFβ-activated kinase 1 (TAK1) and mitogen-activated protein kinase kinase kinase kinase 2 (MAP4K2)” (J Med Chem, 2015).
The source made the active and inactive calls. No cut-off for these calls is given here.

Tests used:
[1] = target: Calcium/calmodulin-dependent protein kinase type II subunit gamma (Homo sapiens) (UniProt Q13555); experiment: Inhibition of CaMK2g Lys2 labeling site in human Huh-7 cells at 1 uM by KiNativ Profiling analysis relative to control; format: cell-based
[2] = target: Calcium/calmodulin-dependent protein kinase type II subunit delta (Homo sapiens) (UniProt Q13557); experiment: Inhibition of CaMK2d Lys1 labeling site harbouring IPTGQEYAAKIINTKK in human Huh-7 cells at 1 uM by KiNativ Profiling analysis relative to control; format: cell-based
[3] = target: Calcium/calmodulin-dependent protein kinase type II subunit alpha (Homo sapiens) (UniProt Q9UQM7); experiment: Inhibition of CaMK2a Lys2 labeling site in human Huh-7 cell lysate at 1 uM by KiNativ Profiling analysis relative to control; format: subcellular
[4] = target: Hepatocyte growth factor receptor (Homo sapiens) (UniProt P08581); experiment: Inhibition of MET ACT labeling site in human A-375 cells at 0.5 uM by KiNativ Profiling analysis relative to control; format: cell-based
[5] = target: T1, Mitogen-activated protein kinase kinase kinase kinase 2 (Homo sapiens) (UniProt Q12851); experiment: Inhibition of MAP4K2 (GCK) Lys2 labeling site in human A-375 cells at 0.5 uM by KiNativ Profiling analysis relative to control; format: cell-based
T1 sequence (whole entry): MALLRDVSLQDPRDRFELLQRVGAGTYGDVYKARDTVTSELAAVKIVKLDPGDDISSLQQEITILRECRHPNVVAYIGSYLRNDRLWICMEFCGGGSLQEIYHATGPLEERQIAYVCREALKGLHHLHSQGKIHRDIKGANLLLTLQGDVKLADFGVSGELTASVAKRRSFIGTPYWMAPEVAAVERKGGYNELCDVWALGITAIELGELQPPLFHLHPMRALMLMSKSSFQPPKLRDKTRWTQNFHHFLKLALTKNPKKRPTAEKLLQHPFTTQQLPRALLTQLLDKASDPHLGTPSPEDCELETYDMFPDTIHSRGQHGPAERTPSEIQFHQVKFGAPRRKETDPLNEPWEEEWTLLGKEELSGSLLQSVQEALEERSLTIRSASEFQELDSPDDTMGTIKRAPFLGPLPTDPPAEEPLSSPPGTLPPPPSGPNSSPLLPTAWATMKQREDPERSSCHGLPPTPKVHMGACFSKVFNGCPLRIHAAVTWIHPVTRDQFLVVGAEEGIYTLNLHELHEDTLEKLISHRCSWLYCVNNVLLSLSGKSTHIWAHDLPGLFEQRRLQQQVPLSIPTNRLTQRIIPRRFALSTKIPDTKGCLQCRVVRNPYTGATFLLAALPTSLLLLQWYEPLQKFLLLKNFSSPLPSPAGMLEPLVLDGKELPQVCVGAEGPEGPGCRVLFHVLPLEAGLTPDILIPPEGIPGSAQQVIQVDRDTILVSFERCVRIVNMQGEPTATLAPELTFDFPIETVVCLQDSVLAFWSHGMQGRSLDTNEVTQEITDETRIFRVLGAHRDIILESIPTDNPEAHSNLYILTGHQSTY

[6] = target: Serine/threonine-protein kinase RIO3 (Homo sapiens) (UniProt O14730); experiment: Inhibition of RIOK3 (unknown origin) at 10 uM by Ambit Kinomescan binding assay
[7] = target: Serine/threonine-protein kinase PLK3 (Homo sapiens) (UniProt Q9H4B4); experiment: Inhibition of PLK3 (unknown origin) at 10 uM by Ambit Kinomescan binding assay
[8] = target: T2, Acylglycerol kinase, mitochondrial (Homo sapiens) (UniProt Q53H12); experiment: Inhibition of AGK ATP labeling site in human Huh-7 cells at 1 uM by KiNativ Profiling analysis relative to control; format: cell-based
T2 sequence (whole entry): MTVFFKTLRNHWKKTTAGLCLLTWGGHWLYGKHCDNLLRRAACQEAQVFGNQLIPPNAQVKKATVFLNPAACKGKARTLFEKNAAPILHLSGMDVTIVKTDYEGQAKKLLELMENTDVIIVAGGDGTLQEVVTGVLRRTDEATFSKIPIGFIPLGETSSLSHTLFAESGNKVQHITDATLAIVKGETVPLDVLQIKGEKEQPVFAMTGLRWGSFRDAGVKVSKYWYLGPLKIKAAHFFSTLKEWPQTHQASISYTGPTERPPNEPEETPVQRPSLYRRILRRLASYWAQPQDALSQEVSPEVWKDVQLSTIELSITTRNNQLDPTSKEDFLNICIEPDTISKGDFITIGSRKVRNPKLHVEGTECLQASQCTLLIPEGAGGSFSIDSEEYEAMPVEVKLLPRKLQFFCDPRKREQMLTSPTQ

[9] = target: Tyrosine-protein kinase ABL (Homo sapiens) (UniProt P00519+P42684); experiment: Inhibition of ABL1/2 K1 labeling site in human Huh-7 cells at 1 uM by KiNativ Profiling analysis relative to control; format: cell-based
[10] = target: T3, Aurora kinase C (Homo sapiens) (UniProt Q9UQB9); experiment: Inhibition of AURKC (unknown origin) at 10 uM by Ambit Kinomescan binding assay
T3 sequence (whole entry): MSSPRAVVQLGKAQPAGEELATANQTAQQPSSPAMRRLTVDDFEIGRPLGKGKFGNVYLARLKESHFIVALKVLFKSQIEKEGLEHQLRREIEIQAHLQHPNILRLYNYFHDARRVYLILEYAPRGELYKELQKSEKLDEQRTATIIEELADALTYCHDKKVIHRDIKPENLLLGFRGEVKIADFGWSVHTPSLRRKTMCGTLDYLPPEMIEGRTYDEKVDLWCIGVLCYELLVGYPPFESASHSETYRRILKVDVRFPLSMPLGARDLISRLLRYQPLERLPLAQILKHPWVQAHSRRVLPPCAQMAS

[11] = target: Serine/threonine-protein kinase 16 (Homo sapiens) (UniProt O75716); experiment: Inhibition of MPSK1 Lys2 labeling site in human A-375 cells at 0.05 uM by KiNativ Profiling analysis relative to control; format: cell-based
[12] = test system: Fibroblast growth factor receptor 3 (Homo sapiens), P22607 [G697C]; experiment: Inhibition of FGFR3 G697C mutant (unknown origin) at 1 uM by Ambit Kinomescan binding assay relative to control; values are per cent of control
[13] = target: Serine/threonine-protein kinase 4 (Homo sapiens) (UniProt Q13043); experiment: Inhibition of MST1 Lys1 labeling site harbouring ETGQIVAIKQVPVESDLQEIIK in human A-375 cells at 0.5 uM by KiNativ Profiling analysis relative to control
[14] = target: Casein kinase II subunit alpha (Homo sapiens) (UniProt P68400); experiment: Inhibition of CSNK2A1 (unknown origin) at 1 uM by Ambit Kinomescan binding assay relative to control; values are per cent of control
Sequence of Casein kinase II subunit alpha (Homo sapiens) (P68400 whole entry, looked up): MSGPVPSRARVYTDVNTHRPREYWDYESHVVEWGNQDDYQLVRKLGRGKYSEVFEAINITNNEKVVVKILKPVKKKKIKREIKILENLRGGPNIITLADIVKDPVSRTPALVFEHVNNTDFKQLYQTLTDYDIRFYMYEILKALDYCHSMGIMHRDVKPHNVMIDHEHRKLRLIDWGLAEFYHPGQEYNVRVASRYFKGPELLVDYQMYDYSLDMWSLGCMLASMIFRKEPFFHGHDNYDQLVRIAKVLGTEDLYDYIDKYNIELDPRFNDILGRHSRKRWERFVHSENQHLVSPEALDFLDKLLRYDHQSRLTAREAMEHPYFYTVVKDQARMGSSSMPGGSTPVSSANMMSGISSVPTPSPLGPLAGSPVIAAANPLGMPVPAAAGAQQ

Sequence of Serine/threonine-protein kinase RIO3 (Homo sapiens) (O14730 whole entry): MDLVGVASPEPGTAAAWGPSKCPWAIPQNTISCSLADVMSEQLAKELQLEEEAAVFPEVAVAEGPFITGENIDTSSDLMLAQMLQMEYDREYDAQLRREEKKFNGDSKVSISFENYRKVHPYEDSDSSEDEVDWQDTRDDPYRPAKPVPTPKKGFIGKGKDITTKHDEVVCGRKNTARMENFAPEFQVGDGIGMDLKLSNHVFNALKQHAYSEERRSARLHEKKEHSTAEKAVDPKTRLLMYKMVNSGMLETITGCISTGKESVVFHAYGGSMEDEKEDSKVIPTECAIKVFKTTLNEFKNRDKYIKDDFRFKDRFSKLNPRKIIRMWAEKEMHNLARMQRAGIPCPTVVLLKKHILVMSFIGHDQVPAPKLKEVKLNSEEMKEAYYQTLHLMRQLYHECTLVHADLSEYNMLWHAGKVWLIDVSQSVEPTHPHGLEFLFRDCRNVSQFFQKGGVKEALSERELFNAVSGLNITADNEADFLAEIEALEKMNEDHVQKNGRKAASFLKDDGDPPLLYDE
Sequence of Calcium/calmodulin-dependent protein kinase type II subunit alpha (Homo sapiens) (Q9UQM7 whole entry): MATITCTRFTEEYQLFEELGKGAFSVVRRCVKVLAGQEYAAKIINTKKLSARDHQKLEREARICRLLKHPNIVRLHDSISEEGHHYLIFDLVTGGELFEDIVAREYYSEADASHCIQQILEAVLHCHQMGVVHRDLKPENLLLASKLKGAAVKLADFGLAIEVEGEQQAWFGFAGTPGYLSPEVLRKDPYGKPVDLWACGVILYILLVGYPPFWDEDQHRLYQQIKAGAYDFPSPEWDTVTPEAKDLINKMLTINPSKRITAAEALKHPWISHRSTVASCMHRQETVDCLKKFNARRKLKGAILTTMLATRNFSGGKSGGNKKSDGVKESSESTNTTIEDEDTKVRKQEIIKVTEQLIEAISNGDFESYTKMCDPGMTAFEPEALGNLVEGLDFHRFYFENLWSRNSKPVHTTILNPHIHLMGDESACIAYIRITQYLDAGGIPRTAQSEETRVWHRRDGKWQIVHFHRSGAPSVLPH
Sequence of Tyrosine-protein kinase ABL (Homo sapiens) (P00519 whole entry, looked up): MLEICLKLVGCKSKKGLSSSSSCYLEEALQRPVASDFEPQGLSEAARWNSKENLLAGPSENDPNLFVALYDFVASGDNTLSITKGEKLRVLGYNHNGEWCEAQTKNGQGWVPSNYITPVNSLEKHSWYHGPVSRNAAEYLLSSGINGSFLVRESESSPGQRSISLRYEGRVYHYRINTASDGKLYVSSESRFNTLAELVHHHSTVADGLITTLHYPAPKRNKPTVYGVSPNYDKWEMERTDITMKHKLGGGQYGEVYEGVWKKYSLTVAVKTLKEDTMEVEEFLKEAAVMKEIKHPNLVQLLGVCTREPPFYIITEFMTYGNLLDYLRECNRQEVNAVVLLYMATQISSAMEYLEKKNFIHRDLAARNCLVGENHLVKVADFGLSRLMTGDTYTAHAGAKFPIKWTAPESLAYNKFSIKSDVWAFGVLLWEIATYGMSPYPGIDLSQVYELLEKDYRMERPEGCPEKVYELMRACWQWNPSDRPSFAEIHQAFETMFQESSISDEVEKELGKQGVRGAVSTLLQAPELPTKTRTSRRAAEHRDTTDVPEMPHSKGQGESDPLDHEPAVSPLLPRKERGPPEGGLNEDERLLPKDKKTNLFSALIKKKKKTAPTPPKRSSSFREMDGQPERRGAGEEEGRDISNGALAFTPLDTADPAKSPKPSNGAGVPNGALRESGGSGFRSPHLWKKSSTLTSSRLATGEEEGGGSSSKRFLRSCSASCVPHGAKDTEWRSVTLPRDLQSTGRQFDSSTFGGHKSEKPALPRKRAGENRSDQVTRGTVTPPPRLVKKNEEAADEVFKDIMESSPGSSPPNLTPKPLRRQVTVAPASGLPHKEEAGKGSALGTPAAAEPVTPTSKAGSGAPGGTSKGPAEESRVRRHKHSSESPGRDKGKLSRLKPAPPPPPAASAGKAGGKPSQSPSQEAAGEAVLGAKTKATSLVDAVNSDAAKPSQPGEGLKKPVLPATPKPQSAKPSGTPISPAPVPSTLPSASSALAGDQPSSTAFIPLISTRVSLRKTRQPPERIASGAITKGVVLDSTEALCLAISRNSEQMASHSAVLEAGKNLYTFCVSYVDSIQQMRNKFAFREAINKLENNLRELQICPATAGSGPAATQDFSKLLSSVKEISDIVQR
Sequence of Tyrosine-protein kinase ABL (Homo sapiens) (P42684 whole entry, looked up): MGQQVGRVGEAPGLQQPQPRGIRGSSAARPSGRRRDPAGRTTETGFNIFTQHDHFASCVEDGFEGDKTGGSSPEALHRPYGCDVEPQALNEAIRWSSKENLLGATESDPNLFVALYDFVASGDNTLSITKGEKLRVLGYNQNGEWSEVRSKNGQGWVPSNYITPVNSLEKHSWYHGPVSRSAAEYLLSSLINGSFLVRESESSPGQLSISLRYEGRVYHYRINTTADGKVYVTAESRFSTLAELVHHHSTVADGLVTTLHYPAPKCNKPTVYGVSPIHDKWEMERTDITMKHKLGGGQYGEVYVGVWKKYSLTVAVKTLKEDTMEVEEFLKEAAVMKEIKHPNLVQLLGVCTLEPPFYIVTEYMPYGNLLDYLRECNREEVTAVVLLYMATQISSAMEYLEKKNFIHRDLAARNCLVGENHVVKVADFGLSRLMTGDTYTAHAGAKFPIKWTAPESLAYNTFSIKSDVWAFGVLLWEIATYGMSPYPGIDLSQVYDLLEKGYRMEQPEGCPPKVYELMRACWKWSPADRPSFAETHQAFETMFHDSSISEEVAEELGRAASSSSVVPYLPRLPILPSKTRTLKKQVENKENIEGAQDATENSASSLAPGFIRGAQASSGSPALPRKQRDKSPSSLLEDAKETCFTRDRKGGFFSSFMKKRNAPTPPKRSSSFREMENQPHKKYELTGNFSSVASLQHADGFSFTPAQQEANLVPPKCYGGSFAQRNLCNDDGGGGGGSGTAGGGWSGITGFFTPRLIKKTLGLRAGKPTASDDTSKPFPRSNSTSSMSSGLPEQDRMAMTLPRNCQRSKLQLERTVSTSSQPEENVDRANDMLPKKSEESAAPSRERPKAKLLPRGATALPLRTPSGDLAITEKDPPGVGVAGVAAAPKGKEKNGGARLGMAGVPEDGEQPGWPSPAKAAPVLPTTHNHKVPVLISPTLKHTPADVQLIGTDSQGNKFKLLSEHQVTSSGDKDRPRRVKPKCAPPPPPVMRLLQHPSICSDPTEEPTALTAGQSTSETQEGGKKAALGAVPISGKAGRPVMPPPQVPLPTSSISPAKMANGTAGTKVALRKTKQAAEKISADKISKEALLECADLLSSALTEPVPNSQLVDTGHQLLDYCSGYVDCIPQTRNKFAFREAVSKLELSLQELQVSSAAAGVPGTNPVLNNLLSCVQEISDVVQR
Sequence of Serine/threonine-protein kinase 4 (Homo sapiens) (Q13043 whole entry, looked up): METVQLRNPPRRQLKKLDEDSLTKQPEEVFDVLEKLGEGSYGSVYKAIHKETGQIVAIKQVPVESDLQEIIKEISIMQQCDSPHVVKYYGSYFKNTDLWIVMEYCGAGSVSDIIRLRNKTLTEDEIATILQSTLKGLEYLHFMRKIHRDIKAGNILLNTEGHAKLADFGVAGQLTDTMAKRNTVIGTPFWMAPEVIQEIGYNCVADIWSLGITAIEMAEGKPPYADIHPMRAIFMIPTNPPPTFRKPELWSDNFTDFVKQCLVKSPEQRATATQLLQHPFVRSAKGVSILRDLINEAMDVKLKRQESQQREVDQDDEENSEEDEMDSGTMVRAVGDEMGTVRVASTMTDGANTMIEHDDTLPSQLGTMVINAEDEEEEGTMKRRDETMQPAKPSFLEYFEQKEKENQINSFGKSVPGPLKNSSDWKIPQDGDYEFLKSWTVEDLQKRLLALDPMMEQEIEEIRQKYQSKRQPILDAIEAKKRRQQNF
Sequence of Fibroblast growth factor receptor 3 (Homo sapiens), P22607 [G697C] (P22607 whole entry G697C): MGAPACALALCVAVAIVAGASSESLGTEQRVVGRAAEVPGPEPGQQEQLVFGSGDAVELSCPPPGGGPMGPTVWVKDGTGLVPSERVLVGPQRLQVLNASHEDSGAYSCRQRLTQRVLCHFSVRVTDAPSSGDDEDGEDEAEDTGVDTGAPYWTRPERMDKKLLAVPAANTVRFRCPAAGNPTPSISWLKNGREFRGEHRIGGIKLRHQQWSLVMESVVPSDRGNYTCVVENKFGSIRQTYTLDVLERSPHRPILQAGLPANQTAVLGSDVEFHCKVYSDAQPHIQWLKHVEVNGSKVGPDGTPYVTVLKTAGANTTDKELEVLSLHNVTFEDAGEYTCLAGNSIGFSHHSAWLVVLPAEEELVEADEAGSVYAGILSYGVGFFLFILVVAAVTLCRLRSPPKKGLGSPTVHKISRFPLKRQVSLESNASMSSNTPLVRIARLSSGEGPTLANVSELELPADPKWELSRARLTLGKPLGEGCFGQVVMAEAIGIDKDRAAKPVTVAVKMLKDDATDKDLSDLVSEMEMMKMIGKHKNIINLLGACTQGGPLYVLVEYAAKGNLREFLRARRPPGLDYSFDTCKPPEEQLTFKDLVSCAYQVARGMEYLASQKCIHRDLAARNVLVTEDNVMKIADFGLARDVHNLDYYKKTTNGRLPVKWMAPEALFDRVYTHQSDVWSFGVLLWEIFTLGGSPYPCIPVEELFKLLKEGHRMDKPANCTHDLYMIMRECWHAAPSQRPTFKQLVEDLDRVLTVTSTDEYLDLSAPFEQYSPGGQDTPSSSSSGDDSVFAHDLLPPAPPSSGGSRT

CNc1cc(Oc2cc(C(=O)Nc3cc(N4CCN(C)CC4)cc(C(F)(F)F)c3)ccc2C)ncn1
inhibition [1]: 20.3% | inhibition [2]: 11.6% | inhibition [3]: 0.7%

CCN1CCN(Cc2ccc(NC(=O)c3ccc(C)c(Oc4ccnc5[nH]ccc45)c3)cc2C(F)(F)F)CC1
inhibition [4]: 14.4% | inhibition [5]: 98% | inhibition [6]: inactive | inhibition [7]: inactive | inhibition [8]: inactive | inhibition [9]: 16.4% | inhibition [10]: inactive

CCN1CCN(Cc2ccc(NC(=O)c3ccc(C)c(/C=C/c4cnc5[nH]ccc5c4OC)c3)cc2C(F)(F)F)CC1
inhibition [11]: 14.1% | residual activity [12]: 23% | inhibition [13]: 17.4% | residual activity [14]: 100%
